Legend:
[1] = tested on: HULLK; assay: qPCR of HULLK (LCK E11, LCK 3'UTR) in cytoplasmic and nuclear fractions of LNCaP cells; format: cell-based, human; settings: 1 nM R1881, 24 hrs
Protocol: FIGS. 3A and 3B illustrate the results of studies designed to characterize HULLK. […] LNCaP cells were seeded for 48 hrs and treated with 1 nM R1881 for 24 hrs. RNA was collected and cDNA was synthesized using strand-specific primers. qPCR was performed with two independent LCK primer sets that amplify HULLK, n=3. […] LNCaP cells were seeded for 48 hrs and treated with 1 nM R1881 for 24 hrs. Whole cell lysates were separated into cytoplasmic and nuclear fractions by centrifugation. RNA was collected from each fraction and cDNA was synthesized using the iScript cDNA synthesis kit. qPCR was performed with two independent LCK primer sets that amplify HULLK, and cytoplasmic and nuclear control genes, n=3.
Some lncRNAs show preferential accumulation in the cytoplasm or nucleus, while other lncRNAs are equally expressed in both compartments. To determine the intracellular localization of HULLK, total RNA was collected to synthesize cDNA from cytoplasmic and nuclear fractions of LNCaP cells starved of hormone or exposed to 1 nM R1881 for 24 hrs and carried out qPCR with LCK E11 and LCK 3′UTR primers to amplify HULLK.

[2] = tested on: LNCaP, C4-2, and Rv1 cells; assay: CyQuant growth assay 7 days after viral transduction; format: cell-based, human; settings: 0.05 nM R1881; LNCaP, C4-2, and Rv1 cells; day 7
Source text: FIG. 5A illustrates the gene structure of LCK and location of each shRNA targeting LCK. MISSION shRNAs targeting human LCK (NM_005356) and the pLKO vector control were purchased from ThermoFisher. Each shRNA was validated for efficiency of LCK or HULLK knockdown in Jurkat and PCa cells by qPCR. (C) The results of CyQuant Assay measuring DNA content as a surrogate for cell number 7 days after shRNA transduction is shown in FIG. 5C. Growth was compared to untreated empty vector control and the values were averaged across biological replicates. Error bars represent standard error of the mean. The relative effect of four independent shRNAs on cell growth in LNCaP, C42, and Rv1 cells in the absence or presence of 0.05 nM R1881, n=3. FIG. 5D plots the data for the relative effect of HULLK overexpression on cell growth in LNCaP, C42, and Rv1 cells in the absence or presence of 0.05 nM R1881, n=3. Statistical analysis was performed using ANOVA and Tukey test.
CyQuant Growth Assays: Assay was performed as previously described (18). Briefly, shRNA or pLKO control virus was added to 1 μg/ml fibronectin-coated 96 well plates. Cells were plated in RPMI-1640 plus 5% CSS with vehicle, 0-0.05 nM R1881, and/or 10 μM Enzalutamide (Selleck Chemicals). Quantification was performed on Day 7 using a BioTek Synergy 2 plate reader.
To explore the functional role of HULLK in PCa, the effects of HULLK knockdown on PCa cell growth was examined. LNCaP, C4-2, and Rv1 cells were transduced with lentiviral particles expressing four independent shRNAs specific for LCK or pLKO empty vector control in the presence or absence of 0.05 nM R1881. Two shRNAs were targeting the carboxy-terminal of LCK (shLCK-3 and shLCK-4) and should decrease HULLK levels; and two shRNAs were directed toward the amino-terminal (shLCK-1 and shLCK-2) and should not affect HULLK expression (FIG. 5A). […] As a control, all four shRNAs efficiently knocked LCK down 60-90% in Jurkat cells. Seven days following viral transduction, cellular growth was measured using CyQuant, which uses DNA content as a surrogate for cell number. In the absence of hormone, the four shRNAs had no dramatic effects on growth in LNCaP or C4-2 cells (FIG. 5C).
The complement experiment of evaluating the effects of overexpressing HULLK on cell growth was also performed. LNCaP, C4-2, and Rv1 cells were transduced with lentivirus expressing either vector or HULLK constructs in the presence or absence of 0.05 nM R1881, and proliferation was calculated seven days following viral transduction.

C[C@]1(O)CC[C@H]2[C@@H]3CCC4=CC(=O)CCC4=C3C=C[C@@]21C [R1881]
hormone increase of LCK 3'UTR transcript levels ([1]; cytoplasmic fraction): ~7.6 fold
hormone increase of LCK E11 transcript levels ([1]; cytoplasmic fraction): approximately 5.3 fold
nuclear transcript amounts (LCK E11, LCK 3'UTR) in response to androgens ([1]; nuclear fraction): not influenced by androgens
cell growth of vector-expressing control cells exposed to R1881 [2]: expected increase in cell growth

— US12319967B2, “Methods and compositions for diagnosing and treating prostate cancer based on long noncoding RNA overlapping the LCK gene that regulates prostate cancer cell growth” (University of Virginia Patent Foundation, priority 2019, dated 2025)
